Assay results from patent publication US7846918B2, “Exemestane compounds, compositions and related methods of use” (Endece, LLC, priority 2005, dated 2010).

Tests used:
Assay type in all cases: cell-based
Capan-1 = assay: MTS cell growth inhibition assay, Capan-1; details: Homo sapiens, Capan-1, Pancreas; for inhibition at 200 µM: read-out: Mean Percent Response at 200 μM (percent of cell growth inhibited); for IC50: mean of 2 independent trials
Procedure: (§1) Activity Of 6-Methyloxamethyl Exemestane Compounds Against Cancer Cell Lines. Cancer-derived cell lines were used for the following growth inhibition assay. The ability of the compound of Formula (B) above and the compound of Formula (D) above to inhibit cancer-derived cell growth was compared to exemestane as a control.
(§2) Cell viability is determined using the MTS assay. This calorimetric procedure measures conversion of the MTS reagent (a tetrazoleum salt) to formazan by living cells. Formazan production is quantified by spectrophotometric measurement at 490 nm and is proportional to viable cell number. Cells are cultured and treated. Following treatment, 100 μl of growth medium is removed and cells incubated with 20 μl CellTiter 96® AQueous One Solution Reagent (1.9 mg/ml in PBS, pH 6.0) for 1-3 hours at 37° C. Absorbance (OD) values are measured using a μQuant microplate reader at a single wavelength of 490 nm.
(§3) Additional assays were performed to evaluate the growth-inhibiting activity of the compound of Formula (B) above and the compound of Formula (D) compared to exemestane as a control.

SK-OV-3 = assay: MTS cell growth inhibition assay, SK-OV-3; details: Homo sapiens, SK-OV-3, Ovarian; for inhibition at 200 µM: read-out: Mean Percent Response at 200 μM (percent of cell growth inhibited); for IC50: mean of 2 independent trials
Procedure: as §1, §2, §3

Capan-2 = assay: MTS cell growth inhibition assay, Capan-2; details: Homo sapiens, Capan-2, Pancreas; for inhibition at 200 µM: read-out: Mean Percent Response at 200 μM (percent of cell growth inhibited); for IC50: mean of 2 independent trials
Procedure: as §1, §2, §3

PC-3 = assay: MTS cell growth inhibition assay, PC-3; details: Homo sapiens, PC-3, Prostrate; for inhibition at 200 µM: read-out: Mean Percent Response at 200 μM (percent of cell growth inhibited); for IC50: mean of 2 independent trials
Procedure: as §1, §2, §3

[1] = tested on: a variety of cancer cell lines; assay: Growth inhibition across the cancer cell line panel; details: for activity against cancer cell lines, in words: text summary of Tables 1-3
Procedure: as §1, §2, §3

HT-29 = assay: MTS cell growth inhibition assay, HT-29; details: Homo sapiens, HT-29, Colon; for inhibition at 200 µM: read-out: Mean Percent Response at 200 μM (percent of cell growth inhibited); for IC50: mean of 2 independent trials
Procedure: as §1, §2, §3

NIH: H23 = assay: MTS cell growth inhibition assay, NIH: H23; details: NIH: H23, Lung; for inhibition at 200 µM: read-out: Mean Percent Response at 200 μM (percent of cell growth inhibited); for IC50: mean of 2 independent trials
Procedure: as §1, §2, §3

MV 522 = assay: MTS cell growth inhibition assay, MV 522; details: MV522, MV 522, Lung; for inhibition at 200 µM: read-out: Mean Percent Response at 200 μM (percent of cell growth inhibited); for IC50: mean of 2 independent trials
Procedure: as §1, §2, §3

NIH: OVCAR-3 = assay: MTS cell growth inhibition assay, NIH: OVCAR-3; details: Homo sapiens, NIH: OVCAR-3, Ovarian; for inhibition at 200 µM: read-out: Mean Percent Response at 200 μM (percent of cell growth inhibited); for IC50: mean of 2 independent trials
Procedure: as §1, §2, §3

MDA-MB-231 = assay: MTS cell growth inhibition assay, MDA-MB-231; details: Homo sapiens, MDA-MB-231, Breast; for inhibition at 200 µM: read-out: Mean Percent Response at 200 μM (percent of cell growth inhibited); for IC50: mean of 2 independent trials
Procedure: as §1, §2, §3

MCF-7 = assay: MTS cell growth inhibition assay, MCF-7; details: Homo sapiens, MCF7, MCF-7, Breast; for inhibition at 200 µM: read-out: Mean Percent Response at 200 μM (percent of cell growth inhibited); for IC50: mean of 2 independent trials
Procedure: as §1, §2, §3

| SMILES | inhibition at 200 µM (Capan-1) [%] | IC50 (Capan-1) [µM] | inhibition at 200 µM (SK-OV-3) [%] | IC50 (SK-OV-3) [µM] | inhibition at 200 µM (Capan-2) [%] | IC50 (Capan-2) [µM] | inhibition at 200 µM (PC-3) [%] | IC50 (PC-3) [µM] | inhibition at 200 µM (HT-29) [%] | IC50 (HT-29) [µM] | inhibition at 200 µM (NIH: H23) [%] | IC50 (NIH: H23) [µM] | inhibition at 200 µM (MV 522) [%] | IC50 (MV 522) [µM] | inhibition at 200 µM (NIH: OVCAR-3) [%] | IC50 (NIH: OVCAR-3) [µM] | inhibition at 200 µM (MDA-MB-231) [%] | IC50 (MDA-MB-231) [µM] | inhibition at 200 µM (MCF-7) [%] | IC50 (MCF-7) [µM] | further results |
| --- | --- | --- | --- | --- | --- | --- | --- | --- | --- | --- | --- | --- | --- | --- | --- | --- | --- | --- | --- | --- | --- |
| C=C1C[C@@H]2[C@H](CC[C@]3(C)C(=O)CC[C@@H]23)[C@@]2(C)C=CC(=O)C=C12 [Exemestane, 6-methylenandrosta-1,4-diene-3,17-dione] | 74 | 98 | 85 | 78 | 56 | 94 | 67 | 105 | 75 | 103 | 81 | 50 | 79 | 103 | 88 | 73 | 67 | 64 | 68 | 96 | activity against cancer cell lines, in words [1]: marginal activity |
| COC[C@@H]1C[C@@H]2[C@H](CC[C@]3(C)C(=O)CC[C@@H]23)[C@@]2(C)C=CC(=O)C=C12 [Exemestane 6R] | 28 | 176 | 98 | 106 | 46 | 104 | 78 | 108 | 80 | 110 | 65 | 106 | 96 | 95 | 78 | 54 | 95 | 77 | 56 | > 200 | inhibition at 200 µM ([1]; see Table 2, 200 μM, read-out: inhibition against a variety of cancer cell lines): 95 to 98% |
| COC[C@H]1C[C@@H]2[C@H](CC[C@]3(C)C(=O)CC[C@@H]23)[C@@]2(C)C=CC(=O)C=C12 [Exemestane 6S] | 5 | > 200 | 0.3 | > 200 | 15 | > 200 | 0 | > 200 | 8 | > 200 | 12 | > 200 | 19 | > 200 | 6 | > 200 | 21 | > 200 | 0 | > 200 | activity against cancer cell lines, in words [1]: works best against cell lines that are estrogen (−) and/or aromatase (+) |
